Series [1] is described as follows: Cell Titer-fluor cell activity assay in HCV-1b replicon cells (CC50). Type of series: cell-based. The protocol:
(§1) The EC50 and CC50 values of anti-HCV compounds were determined by HCV genotype 1a (HCV-1a) and 1B (HCV-1b) stable transfer replication (replicon) cells. The source of genotype 1a replicon is H77 clones containing K1691R, K2040R and S2204I adaptive mutations. The source of genotype 1b replicon is Con1 clones containing E1202G, T1280I and K1846T adaptive mutations.
(§2) HCV Replicon Cell Lines: HCV-1a and HCV-1b Cells
(§3) The compound powder was dissolved in 100% DMSO. Then the compound was diluted 5 times with 6 points, and added into the cell plate with Echo liquid handler. Ensure the final concentration of DMSO was 0.5%. Each compound was tested in double holes. Maximum initial concentration was 100, 10 or 1 nM, 5 times dilution, 6 points.
(§4) b) Cell Culture (HCV-1a or HCV-1b Replicon Cell):
(§5) 1) absorbing the culture supernatant of the cell culture and washing the cells with 10 mL PBS.
(§6) 2) adding preheated pancreatin to the washed cell culture flasks, rotating culture bottle to make the bottom of the culture bottle uniformly covered by pancreatin, then placed into 37° C., 5% CO2 incubator to digest.
(§7) 3) suspending cells in each T150 culture flask with 10-15 mL culture medium, absorbing 0.1 mL liquid and diluting 2 times by trypan blue solution as counted.
(§8) 4) diluting cells to 8×10^4/mL with the culture medium, adding the diluted cells into the compound-containing 96-well plate (Greiner, Cat.#655090) (100 μL/well, 8000 cells/well) with automatic liquid separator (Thermo Scientific). Then place into a 37° C., 5% CO2 incubator for 3 days. Cell control well: no compound, only containing 0.5% DMSO.
5) adding chemiluminescent substrate Cell Titer-fluor to the cell well, after incubation for 30 minutes, detecting the signal by chemiluminescence detection system Envison (Ex at 405 nm and read at 515 nm). The effect of the compounds on the activity of HCV replicon cells was analyzed according to the luminescence data, which was used to calculate the CC50 values.
(§9) The EC50 or CC50 values were obtained by nonlinear fitting analysis on inhibition percentage (inh %) data with GraphPad Prism software.

In series [2] the test system is HCV genotype 1a (HCV-1a) replicon cells. Kind of series: HCV genotype 1a replicon luciferase assay (EC50). The note with it: Hepatitis C virus, 72 h, 3 days, luciferase (Bright-Glo). Type of series: cell-based, hepatitis C virus genotype 1a (H77 clone). The protocol:
as §1
(§10) HCV 1a (HCV-1a) and 1b (HCV-1b) gene subtype replicon system contains the related HCV gene subtype non structural protein gene, G418 resistance gene NEO and luciferase gene, which results in that HCV related protein and luciferase can be stably expressed in cells. By detecting the level of expression of luciferase gene, the level of HCV replication can be determined. Therefore, the system is used as a model for screening the activity of anti-HCV compound in vitro.
as §2, §3, §4, §5, §6, §7, §8
(§11) 6) then adding luciferase luminescence substrate Bright-Glo, after incubation for 5 minutes, detecting the luciferase activity by chemical luminescence detection system Envison (wavelength>700 nm); analyzing the anti-HCV inhibitory activity of the compounds according to luciferase data, which was used to calculate EC50 values.
as §9
Background: In antiviral work, replicon cells carry a viral genome segment that copies itself.

The test system of series [3] is HCV genotype 1b (HCV-1b) replicon cells. Description: HCV genotype 1b replicon luciferase assay (EC50). The series is classed as cell-based, hepatitis C virus genotype 1b (Con1 clone). The note with it: Hepatitis C virus, 72 h, 3 days, luciferase (Bright-Glo). The protocol:
as §1, §10, §2, §3, §4, §5, §6, §7, §8, §11, §9

Bounds are passed on as bounds.

What is called CC50 is the concentration giving 50% cytotoxicity. Low values mean greater toxicity to the cells, high ones lower toxicity to the cells. As a reminder, the EC50 is the midpoint of the concentration-response curve. High values mean a need for much substance, low ones an effect from little substance.

On to `COC(=O)N[C@H](C(=O)N1CCC[C@H]1c1ncc(-c2ccc(-c3ccc(-c4cnc(C5C6CCC(C6)[C@@H]5C(=O)N(NC(=O)OC)C(C)C)[nH]4)cc3)cc2)[nH]1)C(C)C` (some centres unmarked) [AA_121_A], for which the CC50 at 3 days in series [1] is more than 10 nM. Also, the concentration giving a half-maximal response (EC50) in series [2] was 10 to 100 nM; in series [3] it was 1 to 10 nM.
In series [1], `COC(=O)N[C@H](C(=O)N1CCC[C@H]1c1[nH]c(-c2ccc(-c3ccc4cc(-c5cnc(C6CCCC[C@@H]6C(=O)N(NC(=O)OC)C(C)C)[nH]5)ccc4c3)cc2)c2c1CCC2)C(C)C` (some centres unmarked) [AA_094] yielded a CC50 at 3 days of more than 10 nM. Also, the EC50 in series [3] was in the range of 10 to 100 nM.
With `COC(=O)NC(C(=O)N1CCCC1c1ncc(-c2ccc3cc(-c4cnc(C5CCCC[C@H]5C(=O)N(NC(=O)OC)C(C)C)[nH]4)ccc3c2)[nH]1)C1CCOC1` (some centres unmarked) [AA_078], in series [1], the CC50 at 3 days was more than 10 nM. For the same compound, the EC50 in series [3] lay in the range of 10 to 100 nM.
Turning to `COC(=O)NC(C(=O)N1CCCC1c1[nH]c(-c2ccc(-c3ccc(-c4cnc(C5CCCC[C@@H]5C(=O)N(NC(=O)OC)C(C)C)[nH]4)cc3)cc2)c2c1CCC2)C1CCOCC1` (some centres unmarked) [AL_003], the 50% cytotoxic concentration (CC50) at 3 days in series [1] was more than 10 nM. In series [3], the EC50 is 10 to 100 nM.
For `COC(=O)N[C@H](C(=O)N1CCC[C@H]1c1ncc(-c2ccc(-c3ccc(-c4cnc(C5=C(C(=O)N(NC(=O)OC)C(C)C)CCCC5)[nH]4)cc3)cc2)[nH]1)C(C)C` [AA_014] the same measures were more than 100 nM and 1 to 10 nM.
Regarding `COC(=O)N[C@H](C(=O)N1CCC[C@H]1c1ncc(-c2ccc(-c3ccc(-c4cnc(C5CCCC[C@H]5C(=O)N(NC(=O)OC)C(C)C)[nH]4)cn3)cc2)[nH]1)C(C)C` (some centres unmarked) [AA_108], the CC50 at 3 days in series [1] is more than 10 nM. Besides, the EC50 in series [3] lay within 1 to 10 nM.
For `COC(=O)N[C@H](C(=O)N1[C@H](c2ncc(-c3ccc(-c4ccc5cc(-c6cnc(C7CCCC[C@H]7C(=O)N(NC(=O)OC)C(C)C)[nH]6)ccc5c4)cc3)[nH]2)COC1(C)C)C(C)C` (some centres unmarked) [AA_072] the same measures were more than 10 nM and 10 to 100 nM.
`COC(=O)N[C@H](C(=O)N1CCC[C@H]1c1ncc(-c2ccc(-c3ccc4cc(-c5cnc(C6CCCC[C@H]6C(=O)N(NC(=O)OC)C(C)C)[nH]5)ccc4c3)cc2)[nH]1)C(C)C` (some centres unmarked) [AA_071] gave a CC50 at 3 days in series [1] of more than 10 nM. The 50% effective concentration (EC50) in series [3] lay in the range of 1 to 10 nM.
Turning to `COC(=O)N[C@H](C(=O)N1CC2(C[C@H]1c1ncc(-c3ccc(-c4ccc5cc(-c6cnc(C7CCCC[C@H]7C(=O)N(NC(=O)OC)C(C)C)[nH]6)ccc5c4)cc3)[nH]1)OCCO2)C(C)C` (some centres unmarked) [AA_073], the CC50 at 3 days in series [1] is more than 10 nM. Moreover, in series [3], the EC50 lay in the range of 1 to 10 nM.
In the same order, the values of `COC(=O)NC(C(=O)C1CCCCC1c1ncc(-c2ccc(-c3ccc(-c4[nH]c([C@@H]5CCCN5C(=O)[C@@H](NC(=O)OC)C(C)C)c5c4CCC5)cc3)cc2)[nH]1)C(C)C` (some centres unmarked) [AA_100] are more than 10 nM and 10 to 100 nM.
Consider `COC(=O)NN(C(=O)[C@H]1CCCCC1c1ncc(-c2ccc(-c3ccc4cc(-c5cnc(C6CCCC[C@H]6C(=O)N(NC(=O)OC)C(C)C)[nH]5)ccc4c3)cc2)[nH]1)C(C)C` (some centres unmarked) [AA_074], for which, in series [1], the CC50 at 3 days is more than 10 nM. In addition, the concentration for a half-maximal effect (EC50) in series [3] was 10 to 100 nM.
In turn, `COC(=O)NN(C(=O)[C@@H]1CCCCC1c1ncc(-c2ccc3cc(-c4ccc(-c5cnc(C6CCCC[C@@H]6C(=O)N(CC(=O)NC6CC6)C(C)C)[nH]5)cc4)ccc3c2)[nH]1)C(C)C` (some centres unmarked) [AA_075] showed a CC50 at 3 days in series [1] of more than 10 nM. Besides, in series [3], the EC50 lay within 10 to 100 nM.
In turn, `COC(=O)N[C@H](C(=O)N1CCC[C@H]1c1ncc(-c2ccc(-c3ccc(-c4cnc(C5=C(C(=O)N(NC(=O)OC)C(C)C)CCC5)[nH]4)cc3)cc2)[nH]1)C(C)C` [AA_007] gave a CC50 at 3 days in series [1] of more than 100 nM. The EC50 in series [3] was in the range of 1 to 10 nM.
In turn, `COC(=O)N[C@H](C(=O)N1CCC[C@H]1c1ncc(-c2ccc(-c3ccc(-c4cnc([C@@H]5CCCC[C@H]5C(=O)N(NC(=O)OC)C(C)C)[nH]4)cc3)cc2)[nH]1)C(C)C` [AA_091_A] had a CC50 at 3 days in series [1] of more than 10 nM. The compound also yielded an EC50 in series [3] of 1 to 10 nM.
